Here are results for 21 compounds from the supplement of paper PMC8498969.

Test [1] concerns HEK293. Description: IC50 for inhibition of ZIKV NS1 production. The method, then: (§1)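 HEK293 cells in 1536-well plates were pre-treated with compound for 1 h, infected with ZIKV (MOI 1) for 24 h, and NS1 antigen (intra- plus extracellular) was measured by TR-FRET. Confirmation used 11-point 1:3 dilutions, and IC50 and maximal inhibition were fitted in GraphPad Prism.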
For test [2], the system named is HEK293. Kind of test: cytotoxicity IC50 (ATP content, uninfected cells); higher = less cytotoxic. The settings on record: infection: none.
Test [3] deals with HEK293. Kind of test: maximal inhibition of ZIKV NS1 production (% inhibition); higher = stronger antiviral effect. On the procedure: as §1

Each structure is given as a SMILES string.

The compound `Cc1ccc(-c2ncn(-c3ccc(Nc4nccc(-c5cccc(N6CCOCC6)c5)n4)cc3)n2)cn1` yielded a 50% inhibitory concentration (IC50) in test [1] of 1.9 µM. Further, the “cytotoxicity IC50” value in test [2] is 9.8 µM. Moreover, in test [3], the maximal inhibition was found to be 87.
The like results for `Cn1c(=O)n(-c2ccc(C(C)(C)C#N)cc2)c2c3cc(-c4cnc5ccccc5c4)ccc3ncc21` were, in that order, 3.2 µM, 0.53 µM and 82.
For `O=C(Nc1ncc(-c2cc(C(F)F)nn2-c2c(Cl)cccc2Cl)s1)C1CC1` the same measures were 1.2 µM, over 100 µM and 92.
For `CCOC(=O)N1CCN(/[N+]([O-])=N/Oc2ccc([N+](=O)[O-])cc2C#N)CC1` the same measures were 4.5 µM, over 100 µM and 74.
Regarding `Cc1nc2cnc3ccc(C#Cc4cccnc4)cc3c2n1-c1ccc(C(C)(C)C#N)cc1`, the IC50 in test [1] turned out to be 1.4 µM. Besides, the “cytotoxicity IC50” value in test [2] is 10 µM. This compound also yielded a maximal inhibition in test [3] of 102.
The like results for `CCN(CC)CCNC(=O)c1ccc2nc(-c3ccccc3)c(-c3ccc(CN4CCC(n5c(=O)[nH]c6ccccc65)CC4)cc3)nc2c1` were, in that order, 60 µM, over 100 µM and 55.
The like results for `CC[C@@H]1C(=O)N(C)c2cnc(Nc3ccc(C(=O)N[C@H]4CC[C@H](N5CCN(CC6CC6)CC5)CC4)cc3OC)nc2N1C(C)C` were, in that order, 0.065 µM, over 100 µM and 101.
The like results for `Clc1ccc(CCC(Cn2ccnc2)Sc2c(Cl)cccc2Cl)cc1` (stereo not drawn) were, in that order, 39 µM, 16 µM and 97.
On to `COC[C@H](NC(=O)c1cnc(C)s1)C(=O)N[C@@H](COC)C(=O)N[C@@H](Cc1ccccc1)C(=O)[C@@]1(C)CO1`, for which, in test [1], the IC50 stood at 0.32 µM. In addition, the “cytotoxicity IC50” value in test [2] amounted to 0.72 µM. In addition, the maximal inhibition in test [3] came to 100.
For `CC[C@H](CC#N)OC(=O)N[C@@H](C)c1cccc(NC(=O)Nc2ccc(-c3cnco3)c(OC)c2)c1` the same measures were 0.14 µM, 20 µM and 99.
For `CC(C)(C)c1cnc(CSc2cnc(NC(=O)C3CCNCC3)s2)o1`, the IC50 in test [1] is 1.9 µM. In addition, the “cytotoxicity IC50” value in test [2] was over 100 µM. Besides, the maximal inhibition in test [3] is 93.
For `O=C(Nc1ccc([N+](=O)[O-])cc1Cl)c1cc(Cl)ccc1O` the same measures were 8.3 µM, 3.3 µM and 102.
For `CC(C)C[C@H](NC(=O)CNC(=O)c1cc(Cl)ccc1Cl)B1OC(=O)C(CC(=O)O)(CC(=O)O)O1` the same measures were 0.2 µM, 1.6 µM and 94.
For `CC(=O)O[C@@]12CO[C@@H]1C[C@H](O)[C@@]1(C)C(=O)[C@H](O)C3=C(C)[C@@H](OC(=O)[C@H](O)[C@@H](NC(=O)OC(C)(C)C)c4ccccc4)C[C@@](O)([C@@H](OC(=O)c4ccccc4)[C@H]21)C3(C)C`, the IC50 in test [1] came out at 50 µM. The “cytotoxicity IC50” value in test [2] was over 100 µM. The maximal inhibition in test [3] was found to be 66.
For `CCOC(=O)C1=C(C)NC(=S)NC1c1cccc(O)c1` (stereo not drawn) the same measures were 50 µM, over 100 µM and 89.
For `OC[C@H]1O[C@@H](n2cnc3c(S)ncnc32)[C@H](O)[C@@H]1O` the same measures were 8 µM, 4.1 µM and 99.
In turn, `O=C1[C@H](Cc2ccc(O)cc2)N2C(=O)CCN(C(=O)NCc3ccccc3)[C@H]2CN1Cc1cccc2ccccc12` showed an IC50 in test [1] of 13 µM. The “cytotoxicity IC50” value in test [2] is over 100 µM. Besides, the maximal inhibition in test [3] was found to be 103.
The like results for `CCN1/C(=C/C=C/c2sc3ccccc3[n+]2CC)Sc2ccccc21` were, in that order, 50 µM, 1.2 µM and 71.
Turning to `C[C@@H]1C[C@@H]([C@H](O)CC2CC(=O)NC(=O)C2)C(=O)[C@@H](C)C1`, in test [1], the IC50 was determined as 0.29 µM. For the same compound, the “cytotoxicity IC50” value in test [2] is over 100 µM. For the same compound, the maximal inhibition in test [3] is 102.
For `CC[C@@]1(O)C(=O)OCc2c1cc1n(c2=O)Cc2cc3cc(O)ccc3nc2-1` the same measures were 0.047 µM, over 100 µM and 100.
For `C[C@H]1O[C@@H](O[C@H]2[C@@H](O)C[C@H](O[C@H]3[C@@H](O)C[C@H](O[C@H]4CC[C@@]5(C)[C@H](CC[C@@H]6[C@@H]5C[C@@H](O)[C@]5(C)[C@@H](C7=CC(=O)OC7)CC[C@]65O)C4)O[C@@H]3C)O[C@@H]2C)C[C@H](O)[C@@H]1O` the same measures were 0.15 µM, 60 µM and 104.
